According to the NIST ThermoML archive (doi:10.1016/j.jct.2013.09.007):
Numbers after ± are expanded uncertainties.

Assay: activity coefficient (dimensionless); of the first substance listed, at infinite dilution; xn = mol fraction of the nth substance listed
Settings: 101 kPa, Liquid, Chromatography, x1 = 0

| SMILES | activity coefficient (328.15 K) | activity coefficient (338.15 K) | activity coefficient (348.15 K) | activity coefficient (358.15 K) | activity coefficient (368.15 K) | activity coefficient (308.15 K) | activity coefficient (318.15 K) |
| --- | --- | --- | --- | --- | --- | --- | --- |
| CCCC(C)=O [pentan-2-one] + CCCC[n+]1cccc(C)c1.N#C[N-]C#N | 1.81 ± 0.12 | 1.84 ± 0.12 | 1.89 ± 0.13 | 1.93 ± 0.13 | 1.96 ± 0.13 | – | – |
| C1=CCCCC1 [cyclohexene] + CCCC[n+]1cccc(C)c1.N#C[N-]C#N | 8.55 ± 0.58 | 8.27 ± 0.56 | 7.99 ± 0.54 | 7.76 ± 0.53 | 7.54 ± 0.51 | 9.2 ± 0.63 | 8.87 ± 0.61 |
| CCC(C)(C)OC [2-methoxy-2-methylbutane] + CCCC[n+]1cccc(C)c1.N#C[N-]C#N | 9.59 ± 0.65 | 9.51 ± 0.65 | 9.44 ± 0.64 | 9.35 ± 0.64 | 9.27 ± 0.63 | 9.8 ± 0.67 | 9.71 ± 0.66 |
| C#CCCCCC [1-heptyne] + CCCC[n+]1cccc(C)c1.N#C[N-]C#N | 6.38 ± 0.43 | 6.48 ± 0.44 | 6.58 ± 0.45 | 6.67 ± 0.45 | 6.78 ± 0.46 | 6.16 ± 0.42 | 6.27 ± 0.43 |
| COC(C)(C)C [2-methoxy-2-methylpropane] + CCCC[n+]1cccc(C)c1.N#C[N-]C#N | 6.78 ± 0.46 | 6.78 ± 0.46 | 6.79 ± 0.46 | 6.8 ± 0.46 | 6.8 ± 0.46 | 6.76 ± 0.46 | 6.77 ± 0.46 |
| C1CCOC1 [tetrahydrofuran] + CCCC[n+]1cccc(C)c1.N#C[N-]C#N | 1.43 ± 0.09 | 1.45 ± 0.1 | 1.47 ± 0.1 | 1.5 ± 0.1 | 1.53 ± 0.1 | 1.38 ± 0.09 | 1.4 ± 0.09 |
| CCCCCCC [heptane] + CCCC[n+]1cccc(C)c1.N#C[N-]C#N | 69.9 ± 4.8 | 64.3 ± 4.4 | 59.4 ± 4.1 | 55.4 ± 3.8 | 51.7 ± 3.5 | 82.8 ± 5.7 | 75.7 ± 5.2 |
| C#CCCCCCC [1-octyne] + CCCC[n+]1cccc(C)c1.N#C[N-]C#N | 9.42 ± 0.64 | 9.52 ± 0.65 | 9.6 ± 0.65 | 9.68 ± 0.66 | 9.75 ± 0.67 | 9.22 ± 0.63 | 9.32 ± 0.64 |
| CCCC(=O)CC [3-hexanone] + CCCC[n+]1cccc(C)c1.N#C[N-]C#N | – | 2.77 ± 0.19 | 2.82 ± 0.19 | 2.87 ± 0.2 | 2.89 ± 0.2 | – | – |
| c1ccccc1 [benzene] + CCCC[n+]1cccc(C)c1.N#C[N-]C#N | 1.37 ± 0.09 | 1.4 ± 0.09 | 1.43 ± 0.09 | 1.47 ± 0.1 | 1.5 ± 0.1 | – | – |
| CCC(C)(C)C [2,2-dimethylbutane] + CCCC[n+]1cccc(C)c1.N#C[N-]C#N | 47.4 ± 3.2 | 42.9 ± 2.9 | 39.4 ± 2.7 | 36.4 ± 2.5 | 33.6 ± 2.3 | 57.3 ± 3.9 | 52 ± 3.6 |
| CCCCCCCC [octane] + CCCC[n+]1cccc(C)c1.N#C[N-]C#N | 101 ± 7 | 92.7 ± 6.4 | 85.2 ± 5.8 | 79 ± 5.4 | 73.3 ± 5 | 123 ± 8 | 111 ± 8 |
| Cc1ccccc1 [toluene] + CCCC[n+]1cccc(C)c1.N#C[N-]C#N | 2.01 ± 0.14 | 2.05 ± 0.14 | 2.1 ± 0.14 | 2.15 ± 0.15 | 2.2 ± 0.15 | – | – |
| C=CCCCCCCCC [1-decene] + CCCC[n+]1cccc(C)c1.N#C[N-]C#N | 93.8 ± 6.4 | 88.4 ± 6.1 | 83.2 ± 5.7 | 78.1 ± 5.4 | 73.9 ± 5.1 | 109 ± 7 | 101 ± 7 |
| CCCOCCC [dipropyl ether] + CCCC[n+]1cccc(C)c1.N#C[N-]C#N | 17.2 ± 1.2 | 16.6 ± 1.1 | 16.3 ± 1.1 | 15.6 ± 1.1 | 15.2 ± 1 | 18.3 ± 1.3 | 17.7 ± 1.2 |
| CCCO [propan-1-ol] + CCCC[n+]1cccc(C)c1.N#C[N-]C#N | – | 0.678 ± 0.046 | 0.663 ± 0.045 | 0.65 ± 0.044 | 0.638 ± 0.044 | – | – |
| CC(C)=O [acetone] + CCCC[n+]1cccc(C)c1.N#C[N-]C#N | 0.946 ± 0.06 | 0.968 ± 0.061 | 0.999 ± 0.062 | 1.03 ± 0.06 | 1.04 ± 0.07 | – | – |
| C=CCCCCCC [oct-1-ene] + CCCC[n+]1cccc(C)c1.N#C[N-]C#N | 44 ± 3 | 41.8 ± 2.9 | 39.5 ± 2.7 | 37.6 ± 2.6 | 35.7 ± 2.4 | 49.7 ± 3.4 | 46.7 ± 3.2 |
